Columns and labels:
[1] = target: T1, Testis-specific serine/threonine-protein kinase 2 (Homo sapiens) (UniProt Q96PF2); test: Inhibition of human full length TSSK2 expressed in baculovirus assessed as substrate phosphorylation using fluorescence-labelled peptides as substrate at 9 uM after 90 mins by microfluidic peptide phosphorylation assay
T1 sequence (whole entry): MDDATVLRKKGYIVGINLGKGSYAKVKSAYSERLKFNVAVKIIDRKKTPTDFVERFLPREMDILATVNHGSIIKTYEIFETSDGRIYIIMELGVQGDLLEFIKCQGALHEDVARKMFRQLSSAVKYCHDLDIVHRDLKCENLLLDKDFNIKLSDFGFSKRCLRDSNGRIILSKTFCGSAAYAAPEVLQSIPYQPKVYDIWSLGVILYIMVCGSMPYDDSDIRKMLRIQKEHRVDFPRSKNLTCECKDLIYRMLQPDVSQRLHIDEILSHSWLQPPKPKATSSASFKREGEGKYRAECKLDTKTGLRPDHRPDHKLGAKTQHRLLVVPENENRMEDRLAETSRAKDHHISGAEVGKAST

[2] = target: MAP kinase-activated protein kinase 2 (Homo sapiens) (UniProt P49137); test: Inhibition of human full length MAPKAPK2 expressed in baculovirus assessed as substrate phosphorylation using fluorescence-labelled peptides as substrate at 95 uM after 90 mins by microfluidic peptide phosphorylation assay
[3] = tested on: Tyrosine-protein kinase ABL1 (Homo sapiens), P00519 [T315I]; test: Inhibition of human truncated ABL T315I mutant expressed in baculovirus assessed as substrate phosphorylation using fluorescence-labelled peptides as substrate at 0.06 uM after 90 mins by microfluidic peptide phosphorylation assay
[4] = target: T2, MAP kinase-activated protein kinase 5 (Homo sapiens) (UniProt Q8IW41); test: Inhibition of human full length PRAK expressed in baculovirus assessed as substrate phosphorylation using fluorescence-labelled peptides as substrate at 420 uM after 90 mins by microfluidic peptide phosphorylation assay
T2 sequence (whole entry): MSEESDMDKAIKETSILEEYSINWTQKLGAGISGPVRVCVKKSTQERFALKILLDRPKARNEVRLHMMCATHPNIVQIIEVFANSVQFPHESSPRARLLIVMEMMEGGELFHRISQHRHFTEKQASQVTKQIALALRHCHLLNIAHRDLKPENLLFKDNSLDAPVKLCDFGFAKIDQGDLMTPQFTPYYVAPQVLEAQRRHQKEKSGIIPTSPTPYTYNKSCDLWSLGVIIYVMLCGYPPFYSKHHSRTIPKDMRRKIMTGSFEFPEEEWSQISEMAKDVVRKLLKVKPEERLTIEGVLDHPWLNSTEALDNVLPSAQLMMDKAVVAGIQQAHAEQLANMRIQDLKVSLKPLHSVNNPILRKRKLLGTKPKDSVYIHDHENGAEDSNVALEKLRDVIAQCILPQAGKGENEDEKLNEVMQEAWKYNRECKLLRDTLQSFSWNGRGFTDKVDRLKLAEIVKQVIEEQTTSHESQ

[5] = target: Fibroblast growth factor receptor 2 (Homo sapiens) (UniProt P21802); test: Inhibition of human FGFR2 catalytic domain expressed in baculovirus assessed as substrate phosphorylation using fluorescence-labelled peptides as substrate at 70 uM after 90 mins by microfluidic peptide phosphorylation assay
[6] = target: MAP/microtubule affinity-regulating kinase 3 (Homo sapiens) (UniProt P27448); test: Inhibition of human full length c-TAK1 expressed in Escherichia coli cell assessed as substrate phosphorylation using fluorescence-labelled peptides as substrate at 0.2 uM after 90 mins by microfluidic peptide phosphorylation assay
[7] = target: Receptor-type tyrosine-protein kinase FLT3 (Homo sapiens) (UniProt P36888); test: Inhibition of human FLT3 catalytic domain expressed in baculovirus assessed as substrate phosphorylation using fluorescence-labelled peptides as substrate at 0.2 uM after 90 mins by microfluidic peptide phosphorylation assay
[8] = tested on: Fibroblast growth factor receptor 2 (Homo sapiens), P21802 [N549H]; test: Inhibition of human FGFR2 N549H mutant catalytic domain expressed in baculovirus assessed as substrate phosphorylation using fluorescence-labelled peptides as substrate at 0.2 uM after 90 mins by microfluidic peptide phosphorylation assay
[9] = tested on: T3, Receptor-type tyrosine-protein kinase FLT3 (Homo sapiens), P36888 [D835Y]; test: Inhibition of human FLT3 D835Y mutant catalytic domain expressed in baculovirus assessed as substrate phosphorylation using fluorescence-labelled peptides as substrate at 0.2 uM after 90 mins by microfluidic peptide phosphorylation assay
T3 sequence (whole entry): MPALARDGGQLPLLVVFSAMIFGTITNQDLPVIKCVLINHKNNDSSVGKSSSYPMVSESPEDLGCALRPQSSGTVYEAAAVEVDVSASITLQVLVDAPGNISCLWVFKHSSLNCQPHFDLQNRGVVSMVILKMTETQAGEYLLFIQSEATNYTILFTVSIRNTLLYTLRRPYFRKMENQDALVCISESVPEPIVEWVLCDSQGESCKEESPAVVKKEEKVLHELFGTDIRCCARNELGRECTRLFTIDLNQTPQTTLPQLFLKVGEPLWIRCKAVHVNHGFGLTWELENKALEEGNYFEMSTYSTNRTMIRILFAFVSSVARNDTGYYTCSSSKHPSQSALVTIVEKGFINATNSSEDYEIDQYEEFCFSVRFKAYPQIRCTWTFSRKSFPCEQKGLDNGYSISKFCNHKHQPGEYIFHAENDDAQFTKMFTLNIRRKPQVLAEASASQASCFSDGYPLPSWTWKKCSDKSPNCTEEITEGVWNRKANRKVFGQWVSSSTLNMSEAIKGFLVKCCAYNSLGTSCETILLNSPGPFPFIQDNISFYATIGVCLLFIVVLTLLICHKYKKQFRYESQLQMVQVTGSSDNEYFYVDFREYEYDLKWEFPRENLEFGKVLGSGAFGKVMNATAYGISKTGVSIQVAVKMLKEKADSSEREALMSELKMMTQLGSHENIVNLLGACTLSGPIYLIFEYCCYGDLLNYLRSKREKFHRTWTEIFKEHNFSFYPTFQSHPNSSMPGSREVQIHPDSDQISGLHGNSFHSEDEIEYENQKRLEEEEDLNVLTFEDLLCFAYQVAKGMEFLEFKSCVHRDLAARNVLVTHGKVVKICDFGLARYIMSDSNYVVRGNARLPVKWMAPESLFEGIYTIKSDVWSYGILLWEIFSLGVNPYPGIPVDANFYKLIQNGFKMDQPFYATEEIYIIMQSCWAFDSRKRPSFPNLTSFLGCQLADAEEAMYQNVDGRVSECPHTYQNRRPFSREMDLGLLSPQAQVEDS

[10] = target: Tyrosine-protein kinase ABL1 (Homo sapiens) (UniProt P00519); test: Inhibition of human full-length ABL expressed in baculovirus assessed as substrate phosphorylation using fluorescence-labelled peptides as substrate at 0.2 uM after 90 mins by microfluidic peptide phosphorylation assay
[11] = target: Protein kinase C beta type (Homo sapiens) (UniProt P05771); test: Inhibition of human full length PKC beta2 expressed in baculovirus assessed as substrate phosphorylation using fluorescence-labelled peptides as substrate at 2 uM after 90 mins by microfluidic peptide phosphorylation assay
Protein kinase C beta type (Homo sapiens), sequence (P05771 2-671 limits assumed): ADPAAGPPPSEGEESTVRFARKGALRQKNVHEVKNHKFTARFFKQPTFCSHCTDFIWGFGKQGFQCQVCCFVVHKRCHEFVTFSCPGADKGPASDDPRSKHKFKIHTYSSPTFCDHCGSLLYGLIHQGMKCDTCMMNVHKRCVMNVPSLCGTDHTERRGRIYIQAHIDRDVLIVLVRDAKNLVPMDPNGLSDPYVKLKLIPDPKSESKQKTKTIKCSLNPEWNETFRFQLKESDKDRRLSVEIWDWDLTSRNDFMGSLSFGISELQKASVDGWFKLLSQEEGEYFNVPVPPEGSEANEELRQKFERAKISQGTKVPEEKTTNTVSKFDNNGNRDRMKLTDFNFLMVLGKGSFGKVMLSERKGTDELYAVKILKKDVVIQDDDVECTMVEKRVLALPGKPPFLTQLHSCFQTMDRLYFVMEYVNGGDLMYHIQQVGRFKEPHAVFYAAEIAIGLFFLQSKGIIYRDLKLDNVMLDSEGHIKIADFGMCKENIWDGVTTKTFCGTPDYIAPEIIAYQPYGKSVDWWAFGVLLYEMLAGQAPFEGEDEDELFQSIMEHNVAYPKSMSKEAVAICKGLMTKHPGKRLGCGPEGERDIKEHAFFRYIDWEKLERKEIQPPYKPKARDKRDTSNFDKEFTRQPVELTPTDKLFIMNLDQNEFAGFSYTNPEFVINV

Fibroblast growth factor receptor 2 (Homo sapiens), P21802 [N549H], sequence (P21802 whole entry N549H, the tested form may be a part): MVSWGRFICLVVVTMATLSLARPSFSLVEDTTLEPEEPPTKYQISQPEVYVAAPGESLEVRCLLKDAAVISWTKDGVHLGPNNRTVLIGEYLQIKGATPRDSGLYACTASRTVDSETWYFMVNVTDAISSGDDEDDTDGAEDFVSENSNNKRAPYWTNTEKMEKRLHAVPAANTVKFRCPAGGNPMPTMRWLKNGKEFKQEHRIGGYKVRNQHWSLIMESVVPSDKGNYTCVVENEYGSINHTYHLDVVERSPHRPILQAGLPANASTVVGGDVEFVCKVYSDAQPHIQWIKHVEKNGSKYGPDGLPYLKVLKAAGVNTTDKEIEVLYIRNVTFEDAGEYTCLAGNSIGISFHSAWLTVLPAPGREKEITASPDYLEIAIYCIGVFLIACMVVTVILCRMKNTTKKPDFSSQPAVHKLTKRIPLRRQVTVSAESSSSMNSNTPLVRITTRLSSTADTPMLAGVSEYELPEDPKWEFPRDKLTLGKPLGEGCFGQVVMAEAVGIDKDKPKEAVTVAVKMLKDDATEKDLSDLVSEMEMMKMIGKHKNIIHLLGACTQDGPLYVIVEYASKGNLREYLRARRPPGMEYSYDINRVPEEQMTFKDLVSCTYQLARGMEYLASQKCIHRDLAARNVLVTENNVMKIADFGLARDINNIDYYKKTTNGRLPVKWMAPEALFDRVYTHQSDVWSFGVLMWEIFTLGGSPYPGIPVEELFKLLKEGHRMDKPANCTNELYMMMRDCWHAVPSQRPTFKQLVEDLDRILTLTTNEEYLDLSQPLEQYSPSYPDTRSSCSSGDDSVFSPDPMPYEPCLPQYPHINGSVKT
Fibroblast growth factor receptor 2 (Homo sapiens), sequence (P21802 22-821 limits assumed): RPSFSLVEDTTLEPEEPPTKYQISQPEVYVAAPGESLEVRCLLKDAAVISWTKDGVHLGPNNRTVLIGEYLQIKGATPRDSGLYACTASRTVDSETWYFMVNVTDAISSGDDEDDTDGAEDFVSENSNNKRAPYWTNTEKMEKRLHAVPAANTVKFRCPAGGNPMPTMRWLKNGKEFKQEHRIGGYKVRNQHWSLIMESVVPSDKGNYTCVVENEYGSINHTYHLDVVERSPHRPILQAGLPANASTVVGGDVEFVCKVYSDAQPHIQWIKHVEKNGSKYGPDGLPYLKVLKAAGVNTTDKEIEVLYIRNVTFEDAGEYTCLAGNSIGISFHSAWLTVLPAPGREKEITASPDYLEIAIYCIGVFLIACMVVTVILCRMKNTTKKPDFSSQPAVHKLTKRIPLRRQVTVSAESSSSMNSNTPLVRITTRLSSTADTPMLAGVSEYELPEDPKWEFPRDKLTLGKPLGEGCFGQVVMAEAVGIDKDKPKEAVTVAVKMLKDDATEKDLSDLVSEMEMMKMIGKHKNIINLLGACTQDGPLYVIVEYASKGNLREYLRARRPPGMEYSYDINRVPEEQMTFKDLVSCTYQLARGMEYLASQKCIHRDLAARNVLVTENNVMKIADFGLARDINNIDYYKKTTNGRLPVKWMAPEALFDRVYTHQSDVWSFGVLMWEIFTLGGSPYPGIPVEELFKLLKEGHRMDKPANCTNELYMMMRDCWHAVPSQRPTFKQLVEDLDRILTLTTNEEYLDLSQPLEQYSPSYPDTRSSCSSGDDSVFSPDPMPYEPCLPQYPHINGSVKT
MAP/microtubule affinity-regulating kinase 3 (Homo sapiens), sequence (P27448 whole entry, looked up, the tested form may be a part): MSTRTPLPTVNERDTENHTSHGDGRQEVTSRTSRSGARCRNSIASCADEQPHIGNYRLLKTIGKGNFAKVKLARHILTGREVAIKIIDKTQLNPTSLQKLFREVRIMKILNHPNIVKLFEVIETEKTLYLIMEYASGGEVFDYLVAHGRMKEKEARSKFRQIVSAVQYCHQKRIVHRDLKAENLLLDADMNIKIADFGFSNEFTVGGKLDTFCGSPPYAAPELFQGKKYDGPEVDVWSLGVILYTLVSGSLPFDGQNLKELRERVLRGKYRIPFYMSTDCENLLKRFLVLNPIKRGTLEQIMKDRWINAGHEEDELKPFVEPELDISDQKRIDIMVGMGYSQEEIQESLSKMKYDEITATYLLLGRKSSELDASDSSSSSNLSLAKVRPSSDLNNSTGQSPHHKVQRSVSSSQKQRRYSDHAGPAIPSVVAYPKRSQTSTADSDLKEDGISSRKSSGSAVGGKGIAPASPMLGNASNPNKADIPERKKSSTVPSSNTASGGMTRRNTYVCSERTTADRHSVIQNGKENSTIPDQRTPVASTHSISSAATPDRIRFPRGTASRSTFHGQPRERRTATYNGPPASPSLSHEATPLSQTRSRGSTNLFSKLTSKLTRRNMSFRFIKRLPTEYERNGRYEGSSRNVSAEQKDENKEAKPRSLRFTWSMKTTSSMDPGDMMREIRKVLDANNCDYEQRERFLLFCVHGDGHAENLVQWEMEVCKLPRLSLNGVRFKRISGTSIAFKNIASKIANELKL
MAP kinase-activated protein kinase 2 (Homo sapiens), sequence (P49137 whole entry, looked up, the tested form may be a part): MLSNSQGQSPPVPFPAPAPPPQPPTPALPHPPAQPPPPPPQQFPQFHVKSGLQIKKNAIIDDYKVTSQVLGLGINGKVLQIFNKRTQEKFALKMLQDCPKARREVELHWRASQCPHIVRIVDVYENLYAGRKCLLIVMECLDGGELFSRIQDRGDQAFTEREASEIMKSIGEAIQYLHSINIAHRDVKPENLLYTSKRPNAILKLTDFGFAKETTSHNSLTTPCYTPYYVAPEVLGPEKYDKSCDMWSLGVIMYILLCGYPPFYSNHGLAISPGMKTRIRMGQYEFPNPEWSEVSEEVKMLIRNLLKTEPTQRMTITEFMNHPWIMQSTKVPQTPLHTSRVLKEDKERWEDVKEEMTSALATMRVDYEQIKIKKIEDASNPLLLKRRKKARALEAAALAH

Structure (SMILES): NCC1CN(c2ncnc3[nH]c4cnccc4c23)CCO1 (stereo unspecified)
- inhibition [1]: 0%

Structure (SMILES): NCCc1ccc(-c2ncnc3[nH]cnc23)cc1
- inhibition [2]: 56.5%

Structure (SMILES): NC1(Cc2ccc(Cl)cc2)CCN(c2ncnc3[nH]ccc23)CC1
- inhibition [3]: 0%

Structure (SMILES): c1nc(N2CCOCC2)c2nc[nH]c2n1
- inhibition [4]: 40%

Structure (SMILES): CNCc1ccc(-c2ncnc3[nH]cnc23)cc1
- inhibition [5]: 27%

Structure (SMILES): Clc1ccc(C2(c3ccc(-c4ncnc5[nH]cnc45)cc3)CCNCC2)cc1
- inhibition [6]: 27.5%
- inhibition [7]: 7.5%
- inhibition [8]: 7%
- inhibition [9]: 16%
- inhibition [10]: 0%

Structure (SMILES): NC1CCN(c2ncnc3[nH]ccc23)CC1
- inhibition [11]: 62.5%

From ChEMBL document CHEMBL3132769, “Fragment growing to retain or alter the selectivity of anchored kinase hinge-binding fragments” (Medchemcomm, 2014)
